Laboratory results as given in US11278575B2, “Compositions and methods for the treatment of demyelinating conditions” (Duke University, priority 2018, dated 2022).

Experiments:
[1] = system: DUOC-01 cells; experiment: Surface marker expression of DUOC-01 cells by flow cytometry after adding HC or Dex; type: cell-based, human; details: up to 4 hours after adding HC (3 mg/ml) or Dex (25 ng/ml)
Experimental: DUOC-01 cells were collected 4 hours after adding HC or dexamethasone (Dex). The expression of CD45 (FIG. 2A), CD11b (FIG. 2B), Trem2 (FIG. 2C), and CD14 (FIG. 2D) were analyzed by flow cytometry (n=6 per condition).
(§1) First, to test stability, day +21 DUOC-01 cells were harvested into ringers lactate and incubated with HC for up to 4 hours to determine whether there was any change in viability or stability.
(§2) DUOC-01 cells were cultured using standard procedures from cryopreserved and thawed cord blood units, then harvested on day 21 and re-suspended in Ringers. After initial count and viability, the cell suspension was divided into three conditions: (1) Ringer's solution, (2) 3 mg/ml HC, (3) 25 ng/ml Dex.
(§3) Based on previous stability studies, the cells were incubated for 4 hours at room temperature and characterized every hour for 4 hours. The viability of DUOC-01 cells over time was consistently greater with cells incubated with HC compared to DUOC-01 cells incubated with dexamethasone or Ringer's solution (FIG. 1).

[2] = system: DUOC-01 cells; experiment: Stability of day 21 DUOC-01 cells incubated with HC or Dex: viability (AOPI) and total viable cell count; type: cell-based, human; details: for Averaged total viable cell numbers: DUOC-01 cells in Ringers, HC 3 mg/ml or Dex 25 ng/ml, average of six experiments
Experimental: FIG. 1 illustrates that HC increases the viability of DUOC-01 cells over time. Viability was measured by AOPI using the Nexcelom Cellometer Auto 2000 (n=6 samples per time point; 2-way ANOVA p<0.001 for treatment factor; Tukey's post-hoc[…]).
as §1, §2, §3

[3] = system: corpus callosum of NSG mice treated with cuprizone; experiment: Cuprizone demyelination model, myelination score by LFB-PAS staining; type: in vivo; details: one week after injection into corpus callosum of CPZ-treated mice; 1×10^5 cells; cells incubated 2 hours in 3 mg/ml HC where HC is used
Text: Myelination score based on LFB-PAS staining of mice one week after treatment of CPZ-treated mice with, Ringer's, Ringers+HC, DUOC-01 cells, or DUOC-01 cells exposed to HC (1×10^5 cell injected). […] Two independent, blinded readers scored coded LFB-PAS stained sections at the mid-line corpus callosum area, between zero and 3. Data are presented as mean ±SEM (ANOVA for cells P<0.001; n=9-16 mice per group, *P<0.05, Tukey's post-hoc test; pooled 2 independent experiments). […] DUOC-01 cells were cultured via standard procedures from frozen cord blood units in the GMP facility and harvested on day 21. After initial count and viability, the cell suspension was split into two conditions at a concentration of 20,000 cells/μl: (1) Ringers, and (2) Ringers +3 mg/ml HC. Based on previous stability studies, the cells were incubated in HC for 2 hours at room temperature prior to injections. To determine if HC would affect the ability of DUOC-01 cells to promote remyelination, Ringer's solution or DUOC-01 cells was injected into the corpus callosum of NSG mice treated with cuprizone, as previously described (Saha et al. JCI Insight 2016). One week following treatment, brains were harvested and analysis of myelination by LFB-PAS staining was conducted.

Structure (SMILES) | Expression level of DUOC-01 surface markers (CD45, CD14, TREM2, CD11b) [1] | Averaged total viable cell numbers ([2]; 1 hr at room temperature) | Averaged total viable cell numbers ([2]; 2 hr at room temperature) | Averaged total viable cell numbers ([2]; 3 hr at room temperature) | Averaged total viable cell numbers ([2]; 4 hr at room temperature) | Viability of DUOC-01 cells over time (AOPI) ([2]; up to 4 hours, 3 mg/ml HC, compared with dexamethasone or Ringer's solution) | Remyelination (myelination score, LFB-PAS, mid-line corpus callosum) [3]
C[C@]12CCC(=O)C=C1CC[C@@H]1[C@@H]2[C@@H](O)C[C@@]2(C)[C@H]1CC[C@]2(O)C(=O)CO [HC, hydrocortisone] | did not change the expression level | 959,688 | 821,667 | 910,604 | 742,000 | improved the viability | did not inhibit the ability of DUOC-01 cells to promote remyelination
C[C@@H]1C[C@H]2[C@@H]3CCC4=CC(=O)C=C[C@]4(C)[C@@]3(F)[C@@H](O)C[C@]2(C)[C@@]1(O)C(=O)CO [Dexamethazone, dexamethasone] | – | 923,563 | 813,750 | 821,250 | 706,875 | – | –
